Data: article PMC6893557, “Discovery of Non-peptide Small Molecule Allosteric Modulators of the Src-family Kinase, Hck” (Frontiers in Chemistry, 2019)
Values joined by “and” are separate entries in the source; they are usually repeats but may differ in a detail not shown here. Equal values may be shown once.

What was measured:
Hck SH32-L = target: T1, Hck SH32-L (Homo sapiens, UniProt P08631); assay: SPR binding, Hck SH3-SH2-linker protein; settings: for Kd: kinetic KD, 1:1 Langmuir model, ± S.E., NI = no interaction, read-out: KD, Hck proteins SH32-L
T1 construct: an SH3-SH2-linker protein lacking the N-terminal unique domain; made in house; host or cells: E. coli
Description: (§1) SPR analysis was performed on a Reichert 4SPR instrument (Reichert Technologies) using four-channel carboxymethyl dextran hydrogel biosensor chips (Reichert #13206066). Recombinant purified Hck proteins were covalently attached to the chip surface via standard amine coupling chemistry (Grover et al., [2015]). Compounds were prepared in 20 mM Tris-HCl, pH 8.3, 150 mM NaCl, and 1% DMSO and flowed past the immobilized proteins and a reference channel at a flow rate of 50 μL/min for 60 s over a range of concentrations. The binding reaction was followed by dissociation for 120 s, followed by surface regeneration using 10 mM HEPES, pH 7.5, containing 150 mM NaCl, 3 mM EDTA, and 0.05% polysorbate 20, at a flow rate of 50 μL/min for 30 s. All sensorgrams were recorded in triplicate, corrected for buffer effects, and fitted with the 1:1 Langmuir binding model using the TraceDrawer software (Reichert).
(§2) Interaction was monitored to equilibrium, followed by a dissociation phase. The resulting sensorgrams were best-fit to determine the kinetic rate constants and corresponding KD values, where KD = koff/kon. As positive controls, we also monitored the interaction of peptide ligands for the SH3 and SH2 domains.

Fgr SH32 = target: T2, Fgr SH32 (Homo sapiens, UniProt P09769); assay: SPR binding, Fgr dual SH3-SH2 domain protein; settings: kinetic KD, 1:1 Langmuir model, ± S.E., NI = no interaction; for Kd: read-out: KD, Fgr proteins SH32
T2 construct: including a dual SH3-SH2 domain protein; made in house; host or cells: E. coli
Description: as §1

Hck-YEEI = target: T3, Hck-YEEI (Homo sapiens, UniProt P08631, Q523E/Q524E/Q525I); assay: SPR binding, near-full-length Hck; settings: kinetic KD, 1:1 Langmuir model, ± S.E., NI = no interaction, read-out: KD, Hck proteins Hck-YEEI
T3 construct: a near-full-length form of Hck consisting of the SH3, SH2 and kinase domains plus the tyrosine-phosphorylated tail; made in house; host or cells: Sf9 insect cells
Description: as §1, §2

Hck U-SH32-L (Hck-U32L) = target: T4, Hck U-SH32-L (Hck-U32L) (Homo sapiens, UniProt P08631); assay: SPR binding, Hck unique-SH3-SH2-linker protein; settings: kinetic KD, 1:1 Langmuir model, ± S.E., NI = no interaction, read-out: KD, Hck proteins U-SH32-L
T4 construct: including the N-terminal unique region, followed by the SH3 and SH2 domains, and the SH2-kinase linker; made in house; host or cells: E. coli
Description: as §1, §2

Fgr-YEEI = target: T5, Fgr-YEEI (Homo sapiens, UniProt P09769, G526I/P525E/Q524E); assay: SPR binding, near-full-length Fgr; settings: kinetic KD, 1:1 Langmuir model, ± S.E., NI = no interaction; for Kd: read-out: KD, Fgr proteins Fgr-YEEI
T5 construct: near-full-length Fgr, lacking only the unique domain and encoding the same modified C-terminal tail as near-full-length Hck (Fgr-YEEI); made in house; host or cells: Sf9 insect cells
Description: as §1

Fgr U-SH32-L = target: T6, Fgr U-SH32-L (Homo sapiens, UniProt P09769); assay: SPR binding, Fgr unique-SH3-SH2-linker protein; settings: kinetic KD, 1:1 Langmuir model, ± S.E., NI = no interaction; for Kd: read-out: KD, Fgr proteins U-SH32-L
T6 construct: the complete regulatory region, consisting of the unique, SH3, and SH2 domains plus the SH2-kinase linker (U32L protein); made in house; host or cells: E. coli
Description: as §1

Hck U32L protein = target: T7, Hck U32L protein (Homo sapiens, UniProt P08631); assay: Fluorescence polarization (FP) assay: displacement of VSL12 probe peptide from Hck-U32L; type: binding; settings: IC50, inhibition of VSL12 peptide FP signal, Hck-U32L plus fluorescent VSL12 probe; two independent determinations ± S.E., each data point in triplicate
T7 construct: including the N-terminal unique region, followed by the SH3 and SH2 domains, and the SH2-kinase linker; made in house; host or cells: E. coli
Description: For the FP assay, the peptide was labeled with 6-carboxyfluorescein at its N-terminus. […] Molecular weight and purity of all peptides were verified by mass spectrometry. Stock solutions (10 mM) were prepared in a 1:1 mixture of DMSO and FP assay buffer (20 mM Tris-HCl, pH 8.3) for the labeled peptide and FP assay buffer for the unlabeled peptide. Stock solutions were stored at −20°C.
FP assays were performed in low-volume black 384-well plates with a non-binding surface (Corning #3676). Peptides and proteins were added to each well in FP assay buffer for a final assay volume of 20 μL and mixed by shaking for 5 min at room temperature. […] Raw fluorescence intensity was also read at the same wavelengths for each assay.
Screening libraries were purchased from ChemDiv (10,000 non-peptide peptidomimetic library) and ChemBridge (50,000 compound diversity library). Each library compound was screened at 50 μM and a final DMSO concentration of 1%. […] Each plate contained 32 wells of the Hck U32L protein plus probe peptide and DMSO as positive controls, and 32 wells of mutant Hck U32L-W118A protein plus probe peptide and DMSO as negative controls. Results for each compound test well were ranked by z score analysis according to the formula: z = (sample FP—mean FPsamples)/standard deviationsamples (Shun et al., [2011]). Potential hit compounds, defined as those that inhibited the FP signal by at least 30% and/or with z scores < −3.0, were then retested in quadruplicate using the FP assay under screening assay conditions.
The target protein for HTS consisted of the entire regulatory region of the p59 form of human Hck, including the N-terminal unique region, followed by the SH3 and SH2 domains, and the SH2-kinase linker (referred to hereafter as the Hck “U32L” protein). […] The principle of the assay is illustrated in Figure 2A. Binding of the probe peptide to the SH3 domain in the target protein slows its rotation, resulting in an increase in the FP signal. Library compounds that interfere with probe binding or stabilize SH3-linker interaction reduce the FP signal, and score as hits.

T6 sequence (P09769 1-257 limits assumed): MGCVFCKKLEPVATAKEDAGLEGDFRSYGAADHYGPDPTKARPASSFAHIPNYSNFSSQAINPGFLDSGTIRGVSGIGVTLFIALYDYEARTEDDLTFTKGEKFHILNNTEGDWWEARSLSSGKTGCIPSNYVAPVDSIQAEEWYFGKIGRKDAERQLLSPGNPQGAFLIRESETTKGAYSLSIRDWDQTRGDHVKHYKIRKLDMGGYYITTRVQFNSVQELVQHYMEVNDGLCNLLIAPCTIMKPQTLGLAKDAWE
T7 sequence (P08631 22-256): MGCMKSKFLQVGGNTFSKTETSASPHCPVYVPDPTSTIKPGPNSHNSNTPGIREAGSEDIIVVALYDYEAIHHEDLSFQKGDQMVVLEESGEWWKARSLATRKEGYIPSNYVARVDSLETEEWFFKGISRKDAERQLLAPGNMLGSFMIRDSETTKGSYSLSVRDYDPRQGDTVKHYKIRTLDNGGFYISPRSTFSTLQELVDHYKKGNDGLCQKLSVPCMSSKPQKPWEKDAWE
T4 sequence (P08631 22-256): as above
T2 sequence (P09769 77-241 limits assumed): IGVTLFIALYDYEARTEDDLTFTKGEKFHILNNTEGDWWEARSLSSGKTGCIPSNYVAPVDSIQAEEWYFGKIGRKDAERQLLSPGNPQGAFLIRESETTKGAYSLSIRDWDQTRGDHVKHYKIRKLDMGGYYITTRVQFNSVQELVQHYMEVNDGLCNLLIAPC
T3 sequence (P08631 78-526 Q523E/Q524E/Q525I limits assumed): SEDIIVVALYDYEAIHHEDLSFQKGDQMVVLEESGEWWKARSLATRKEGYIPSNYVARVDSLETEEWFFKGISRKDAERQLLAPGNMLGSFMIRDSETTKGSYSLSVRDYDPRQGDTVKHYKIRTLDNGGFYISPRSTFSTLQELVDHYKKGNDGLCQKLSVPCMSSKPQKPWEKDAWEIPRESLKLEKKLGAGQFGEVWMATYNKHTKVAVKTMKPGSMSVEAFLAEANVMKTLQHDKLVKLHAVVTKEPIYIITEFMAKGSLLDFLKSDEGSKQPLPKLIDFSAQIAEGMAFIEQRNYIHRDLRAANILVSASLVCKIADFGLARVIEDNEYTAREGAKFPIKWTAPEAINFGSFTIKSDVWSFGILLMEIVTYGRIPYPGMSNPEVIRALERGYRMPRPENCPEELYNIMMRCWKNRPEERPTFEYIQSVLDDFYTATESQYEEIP
T5 sequence (P09769 77-526 Q524E/P525E/G526I): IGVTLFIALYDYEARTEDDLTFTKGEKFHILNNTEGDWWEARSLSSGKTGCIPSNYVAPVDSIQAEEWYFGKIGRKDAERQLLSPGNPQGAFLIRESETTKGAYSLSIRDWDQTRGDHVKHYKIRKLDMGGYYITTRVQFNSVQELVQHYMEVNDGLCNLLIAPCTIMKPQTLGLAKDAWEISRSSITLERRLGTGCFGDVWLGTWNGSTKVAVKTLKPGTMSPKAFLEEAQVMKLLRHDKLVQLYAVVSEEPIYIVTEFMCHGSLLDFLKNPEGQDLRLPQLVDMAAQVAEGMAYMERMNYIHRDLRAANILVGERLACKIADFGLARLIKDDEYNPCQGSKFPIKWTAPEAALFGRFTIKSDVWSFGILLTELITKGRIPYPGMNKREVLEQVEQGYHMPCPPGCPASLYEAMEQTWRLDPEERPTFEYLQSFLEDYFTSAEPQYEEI
T1 sequence (P08631 72-256 limits assumed): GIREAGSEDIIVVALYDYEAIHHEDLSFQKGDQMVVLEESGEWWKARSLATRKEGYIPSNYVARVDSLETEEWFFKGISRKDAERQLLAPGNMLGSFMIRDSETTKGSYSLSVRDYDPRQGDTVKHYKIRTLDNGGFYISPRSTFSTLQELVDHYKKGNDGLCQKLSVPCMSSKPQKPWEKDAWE

Kd (Hck SH32-L) [µM]	Kd (Hck-YEEI) [µM]	Kd (Hck U-SH32-L (Hck-U32L)) [µM]	IC50 (Hck U32L protein)	Kd (Fgr SH32) [µM]	Kd (Fgr-YEEI) [µM]	Kd (Fgr U-SH32-L) [µM]	Fold increase of KD with SH3-SH2-linker protein lacking the unique domain vs Hck-U32L (Hck SH32-L)	Reduction of extent of binding with SH3-SH2-linker protein lacking the unique domain vs Hck-U32L (Hck SH32-L)	SMILES	KD, Fgr proteins SH32 (Fgr SH32)	KD, Fgr proteins Fgr-YEEI (Fgr-YEEI)	KD, Fgr proteins U-SH32-L (Fgr U-SH32-L)
338 ± 4	180 ± 1	831	36.1 µM and 59.6 µM	69 ± 1	64 ± 2	102 ± 4	–	–	Cc1cnc(NCc2ccccc2CN2CCCC2=O)nc1N(C)C [Compound 4]	–	–	–
83 ± 19	103 ± 4	36 ± 4	52.9 µM and 53.2 µM	104 ± 3	141 ± 4	131 ± 6	–	–	CC(C)Nc1ccnc(NCc2cccnc2Oc2ccc(F)cc2F)n1 [Compound 1]	–	–	–
96 ± 2	93 ± 1	30	11.3 µM and 16.7 µM	352 ± 1	107 ± 1	70 ± 5	about 3 fold	about 50%	Cc1cnc(NCc2ccccc2-n2ccnc2)nc1N(C)C [Compound 2]	–	–	–

SMILES	Kd (Hck SH32-L) [µM]	Kd (Hck-YEEI) [µM]	Kd (Hck U-SH32-L (Hck-U32L)) [µM]	IC50 (Hck U32L protein)	Kd (Fgr SH32) [µM]	Kd (Fgr-YEEI) [µM]	Kd (Fgr U-SH32-L) [µM]	Fold increase of KD with SH3-SH2-linker protein lacking the unique domain vs Hck-U32L (Hck SH32-L)	Reduction of extent of binding with SH3-SH2-linker protein lacking the unique domain vs Hck-U32L (Hck SH32-L)	KD, Fgr proteins SH32 (Fgr SH32)	KD, Fgr proteins Fgr-YEEI (Fgr-YEEI)	KD, Fgr proteins U-SH32-L (Fgr U-SH32-L)
CNc1ccnc(NCCC23CCCN2CCC3)n1 [Compound 3]	905 ± 18	142 ± 1	55 ± 5	36.3 µM and 31 µM	–	–	–	–	–	did not bind	did not bind	did not bind
